Laboratory results from patent US8785430B2, “Compound that can inhibit UBC13-UEV interactions, pharmaceutical compositions and therapeutic uses” (Consejo Superior de Investigaciones Cientificas, priority 2006, dated 2014).

Tests used:
[1] = tested on: interaction between p53 and large T; assay: Two-hybrid assay in yeasts, positive interaction control p53 - large T; assay type: cell-based; conditions: 100 μM
Protocol: Each of the 52 mixtures of peptoids was analyzed by means of this process in triplicate, in three independent experiments. The interaction between UBC13 and UEV1 in the absence of peptoids and the interaction between p53 and the SV40 large T protein were used as positive interaction controls in all these assays. The laminin and […] proteins were used as a negative control. The β-galactosidase activities for the UBC13-UEV1 interaction were standardized with respect to the β-galactosidase activities of the corresponding positive control thereof (p53-large T). The activities β-galactosidase standardized in that manner are illustrated in FIG. 2.
The effect of compounds Ia and Ib on the UBC13-UEV1 interaction in two-hybrid assays in yeasts was performed by incubating cells of the Saccharomyces cerevisiae strain AH109, grown in a selective medium, with 100 μM of either compound. The interaction of Sv40 large T and p53 proteins was used as positive interaction control. The intensity of the interactions was determined colorimetrically by means of detecting the β-galactosidase activity, using O-nitrophenyl-p-galactopyranoside (ONPG) as a substrate, each determination being performed in triplicate. […]

[2] = target: T1, binding of UEV1 to GST-UBC13 (Homo sapiens, UniProt P61088); assay: Purified recombinant protein interaction assay, UEV1 binding to GST-UBC13 on glutathione-Sepharose; conditions: for UEV1 in the fraction which is eluted and not bound to GST-UBC13: 100 μM; for inhibition of the interaction of UEV1 with UBC13 at lower concentrations: much lower concentrations, of up to 10 nM
T1 construct: made in house; host or cells: Escherichia coli BL21
T1 sequence (P61088 1-152): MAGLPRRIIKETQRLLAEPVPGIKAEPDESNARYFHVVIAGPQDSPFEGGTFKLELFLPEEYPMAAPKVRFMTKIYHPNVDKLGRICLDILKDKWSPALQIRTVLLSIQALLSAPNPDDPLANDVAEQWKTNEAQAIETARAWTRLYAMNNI
Protocol: To determine the activity of these compounds in acellular assays, protein-protein interaction experiments were performed with recombinant proteins produced in Escherichia coli. To express UBC13 and UEV1, bacterial cells of the E. coli strain BL21 were transformed with plasmids pGEX-4T1-UBC13 or pGEX-4T3-UEV1, transformed colonies being selected by means of growth in plates with ampicillin (100 μg/mL). Individual colonies were transferred to 3 L of LB medium without antibiotics, being grown with stirring at 37° C. until the culture reached the exponential phase (OD600˜0.6), at which time the expression of the recombinant proteins was induced by means of adding isopropyl […] (IPTG, Sigma I-6758) at a concentration of 1 mM for 5 hours to the culture. The cultures were transferred to tubes, centrifuged and the cell pellets were resuspended in twice their volume of phosphate buffered saline (PBS) at pH 7.4 and were broken in a Cell Disruptor instrument (Constant Systems). The cell lysates were filtered through cellulose acetate filters with […] (Millipore SLHA033SS) and were applied to GSTrap FF columns (Amersham Biosciences 17-5131-01). In the case of UEV1, the protein bound specifically to the column was subjected to enzymatic digestion on the same column with 50 units of thrombin (Amersham Biosciences 27-0846-01) at 25° C. overnight. A HiTrapBenzamidine FF column (Amersham Biosciences 27-0846-01) was coupled to the previous column, such that the GST unit was trapped in the first column, and the thrombin in the second column. Then the UEV1 protein was eluted, without the GST portion, followed by a subsequent step of purification by means of gel filtration chromatography with a Superdex 75 column. The GST-UBC13 recombinant protein was expressed as indicated above, being purified by means of affinity chromatography in GSTrap FF columns, followed by filtration chromatography in Superdex 75. The fractions corresponding to the purified proteins were concentrated by means of centrifugation in Centricon YM-10 columns (Millipore 4205), being stored at 4° C. until their use.
To determine the effects of compounds Ia and Ib on the interaction of UBC13 with UEV1, 2 μL of the GST-UBC13 chimeric recombinant protein, at a concentration of […] in a 50 mM Hepes buffer, 100 mM NaCl, 1 mM EDTA, 0.5 mM DTT at pH 7.6 were pre-incubated for 30 minutes at room temperature with the compounds Varubin, Ib or the cyclic control compound VIII-N6-2-1C at final concentrations of 10 nM, 100 nM, 1 μM, 10 μM or 100 μM. […]

[3] = tested on: S. cerevisiae Δrad6 mutants; assay: Survival of S. cerevisiae Δrad6 mutants after ultraviolet radiation or MMS; assay type: cell-based, Saccharomyces cerevisiae; conditions: 100 μM; for rescue of the rad6 phenotype generated by treatment with MMS (survival): 0.03% MMS; for rescue of the rad6 phenotype induced by UV irradiation (survival): ultraviolet radiation
Protocol: To determine if compounds Ia and Ib inhibit the function of Ubc13p-Mms2p, their capacity to mimic in S. cerevisiae the DNA repair phenotypes generated by the null mutation of ubc13 was evaluated. Thus, mutant strains in RAD6 or REV3 and the parent strain thereof (control) were used in viability assays after the exposure to ultraviolet radiation or MMS. The genotypes of the strains used are the following:
2) Strain Δrad6: MAT at his3Δ1 leu2Δ0 lys2Δ0 ura3Δ0 rad6::kanMX4
Cells were inoculated in liquid cultures with YPD medium overnight at 30° C., until reaching the log phase of growth. For the treatments with ultraviolet radiation, aliquots of cells, grown in the presence or absence of 100 μM of compounds Ia or Ib were irradiated in a Stratalinker instrument (Stratagene) at the energies indicated in FIGS. 7 and 8. For the treatment with the mutagenic agent MMS, aliquots of cells grown or not in medium with 100 μM of compounds Ia or Ib were incubated, 0.03% MMS being added, with subsequent incubation for the times indicated in FIGS. 7 and 8. After either treatment, 500 cells were seeded in plates with YPD medium, counting the colonies after 2 days.

Structure (SMILES) | inhibition of the control interaction between p53 and large T [1] | UEV1 in the fraction which is eluted and not bound to GST-UBC13 [2] | inhibition of the interaction of UEV1 with UBC13 at lower concentrations [2] | rescue of the rad6 phenotype generated by treatment with MMS (survival) [3] | rescue of the rad6 phenotype induced by UV irradiation (survival) [3]
NC(=O)CN(CCc1ccccn1)C(=O)C1CC(=O)N(CCc2ccc(F)cc2)CC(=O)N1CCc1ccc(F)cc1 (stereo not shown) [Ia, N-aminocarbamoylmethyl-N-(2′-(2″pyridyl)ethyl)-1,4-bis[2′-(4″-fluorophenyl)ethyl]-3,7-dioxo-[1,4]diazepane-5-carboxamide] | Neither of these two compounds inhibits the interaction | up to 60% | efficient inhibition | to a lesser extent | clearly rescued the rad6 phenotype
NC(=O)CN(CCc1ccccn1)C(=O)CC1C(=O)N(CCc2ccc(F)cc2)CC(=O)N1CCc1ccc(F)cc1 (stereo not shown) [Ib, 1,4-bis[2′-(4″-fluorophenyl)ethyl]-2-[N-aminocarbonylmethyl-N-(2′-(2″-pyridyl)ethyl)-carbonylmethyl]piperazine-3,6-dione] | Neither of these two compounds inhibits the interaction | ≤ 40% | efficient inhibition | to a lesser extent | clearly rescued the rad6 phenotype
